pIC50: −log10 of the molar value. Like-named read-outs stand apart in the source and are kept apart here.

This is an account of results in patent US7452885B2, “Amino-5-(6-membered)heteroarylimidazolone compounds and the use thereof for β-secretase modulation” (Wyeth, priority 2005, dated 2008).

One data set addresses human BACE1 (Homo sapiens, UniProt P56817). Briefly: Fluorescent kinetic assay, BACE-1 (Example 114). Type of data set: biochemical. To be noted: for IC50: 10 nM human BACE1, 25 μM substrate WABC-6, 50 mM Na-Acetate pH 4.5, room temperature, read-out: BACE-1 (IC50 μM). How it is done: Evaluation of BACE-1 Binding Affinity of Test Compounds
Fluorescent Kinetic Assays
Dilution and mixing steps: total reaction volume: 100 μL
100 μM substrate dilution in 1×PBS was prepared, and
Fluorescence Readings: Readings at λex 320 nm and εem 420 nm are taken every 40 sec for 30 min at room temperature and the linear slope for substrate cleavage rate (vi) determined.

Chain of human BACE1 (P56817 46-501): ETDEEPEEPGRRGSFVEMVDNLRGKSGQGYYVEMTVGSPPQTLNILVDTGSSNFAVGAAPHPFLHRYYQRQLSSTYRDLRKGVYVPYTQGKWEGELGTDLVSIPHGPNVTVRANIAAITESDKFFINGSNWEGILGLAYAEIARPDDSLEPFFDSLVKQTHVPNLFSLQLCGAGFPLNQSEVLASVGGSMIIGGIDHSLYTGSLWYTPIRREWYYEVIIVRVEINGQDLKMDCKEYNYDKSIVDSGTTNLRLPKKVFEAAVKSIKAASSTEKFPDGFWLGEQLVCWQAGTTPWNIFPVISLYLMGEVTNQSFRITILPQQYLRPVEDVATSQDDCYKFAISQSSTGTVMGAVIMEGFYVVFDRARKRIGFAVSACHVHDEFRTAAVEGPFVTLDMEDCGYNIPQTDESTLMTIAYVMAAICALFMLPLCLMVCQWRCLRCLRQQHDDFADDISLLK

With `CN1C(=O)C(c2ccncc2)(c2cccc(-c3cccc(OC(F)(F)F)c3)c2)N=C1N` (stereo not drawn) [Example 54], the melting point (in general, the temperature of the solid-liquid transition) fell in the range of 208 to 210 °C. Besides, the pIC50 (in general, the IC50 on a negative log10 scale, so that one unit is a factor of ten) against human BACE1 is 6.00 to 6.96.

On to `CN1C(=O)C(c2ccncc2)(c2cccc(-c3ccn(C)n3)c2)N=C1N` (stereo not drawn) [Example 48], for which the melting point lay within 199 to 201 °C. Also, the pIC50 on human BACE1 was 6.00 to 6.96.

On to `COc1cccc(-c2cccc(C3(c4ccncc4)N=C(N)N(C)C3=O)c2)c1` (stereo not drawn) [Example 34], for which, on human BACE1, the negative logarithm of the IC50 (pIC50) is 7.00 to 8.00.

Consider `CCc1cc(C2(c3cccc(-c4cccnc4)c3)N=C(N)N(C)C2=O)cc(CC)n1` (stereo not drawn) [Example 90], for which the melting point is 152 to 157 °C. The IC50 (usually the concentration that inhibits the measured activity by half) at human BACE1 fell in the range of 0.01 to 0.1 µM.

For the molecule `COc1ncc(C2(c3cccc(-c4cccnc4F)c3)N=C(N)N(C)C2=O)c(OC)n1` (stereo not drawn) [Example 98], the half-inhibitory concentration (IC50) at human BACE1 was in the range of 0.11 to 1 µM.

`CN1C(=O)C(c2ccncc2)(c2ccc(OC(F)F)cc2)N=C1N` (stereo not drawn) [Example 112, 2-amino-5-[4-(difluoromethoxy)phenyl]-3-methyl-5-pyridin-4-yl-3,5-dihydro-4H-imidazol-4-one] returned a melting point of 193 to 195 °C. At human BACE1, the IC50 was more than 1 µM.

As for `CN1C(=O)C(c2ccncc2)(c2cccc(O)c2)N=C1N` (stereo not drawn) [Example 51, 2-Amino-5-(3-hydroxyphenyl)-3-methyl-5-pyridin-4-yl-3,5-dihydro-4H-imidazol-4-one], the melting point lay in the range of 245 to 247 °C. For the same molecule, the IC50 on human BACE1 was more than 1 µM.

Molecule `CN1C(=O)C(c2ccncc2)(c2cccc(OCC3CC3)c2)N=C1N` (stereo not drawn) [Example 71] registered a melting point of 200 to 202 °C. The molecule further had a pIC50 on human BACE1 of 6.00 to 6.96.

`CN1C(=O)C(c2ccncc2)(c2cccc(-c3cccc(C(F)(F)F)c3)c2)N=C1N` (stereo not drawn) [Example 32]: the melting point came to 234 °C. At human BACE1, this molecule had a pIC50 of 6.00 to 6.96.

`CN1C(=O)C(c2ccncc2)(c2cccc(-c3cc(F)cc(F)c3)c2)N=C1N` (stereo not drawn) [Example 31] gave a negative logarithm of the IC50 (pIC50) on human BACE1 of 7.00 to 8.00.

Molecule `CCc1cc([C@]2(c3cccc(-c4cncnc4)c3)N=C(N)N(C)C2=O)cc(CC)n1` [Example 103B] gave a pIC50 against human BACE1 of 7.00 to 8.00.

Consider `CCc1cc(C2(c3ccc(F)c(-c4cnccc4F)c3)N=C(N)N(C)C2=O)cc(CC)n1` (stereo not drawn), for which the melting point lay in the range of 92 to 100 °C.

For `CCc1cc(C2(c3cccc(-c4cc(F)ccc4F)c3)N=C(N)N(C)C2=O)cc(CC)n1` (stereo not drawn) [Example 92], the melting point was 107 to 112 °C. For the same molecule, the IC50 at human BACE1 was in the range of 0.11 to 1 µM.

Regarding `COc1ncc(C2(c3cccc(-c4cncnc4)c3)N=C(N)N(C)C2=O)c(OC)n1` (stereo not drawn) [Example 97], the IC50 on human BACE1 is more than 1 µM.

As for `CN1C(=O)C(c2ccncc2)(c2cccc(-c3cccc(C(N)=O)c3)c2)N=C1N` (stereo not drawn) [Example 37], the melting point lay in the range of 188 to 190 °C. This molecule also had a negative-log IC50 (pIC50) at human BACE1 of 6.00 to 6.96.

Molecule `CC(=O)c1cccc(-c2cccc(C3(c4ccncc4)N=C(N)N(C)C3=O)c2)c1` (stereo not drawn) [Example 38] yielded a melting point of 218 to 220 °C. Further, on human BACE1, the pIC50 is 6.00 to 6.96.

`CCc1cc([C@@]2(c3cccc(-c4cncnc4)c3)N=C(N)N(C)C2=O)cc(CC)n1` [Example 103A] had a pIC50 on human BACE1 of less than 6.00.

`CCc1cc(C2(c3cccc(-c4cncnc4)c3)N=C(N)N(C)C2=O)cc(C)n1` (stereo not drawn) [Example 84] had a pIC50 against human BACE1 of 6.00 to 6.96.

The molecule `CCCOc1cccc(C2(c3ccncc3)N=C(N)N(C)C2=O)c1` (stereo not drawn) [Example 52, 2-Amino-3-methyl-5-(3-propoxyphenyl)-5-pyridin-4-yl-3,5-dihydro-4H-imidazol-4-one] returned a melting point of 173 to 175 °C.

`Cc1cc(C2(c3cccc(-c4cnccn4)c3)N=C(N)N(C)C2=O)ccn1` (stereo not drawn) [Example 66] had a melting point of 138 to 141 °C. Also, the negative logarithm of the IC50 (pIC50) at human BACE1 was 7.00 to 8.00.

Molecule `Cc1cc(C2(c3cccc(-c4cccnc4)c3)N=C(N)N(C)C2=O)cc(C)n1` (stereo not drawn) [Example 74] had a melting point of 176 to 180 °C. The molecule further showed a pIC50 at human BACE1 of 6.00 to 6.96.

In the case of `CN1C(=O)C(c2ccncc2)(c2cccc(-c3cc[nH]n3)c2)N=C1N` (stereo not drawn) [Example 47], the melting point is 148 to 150 °C. Also, the negative logarithm of the IC50 (pIC50) against human BACE1 was less than 6.00.

As to `Cc1cc(C2(c3cccc(-c4cnccn4)c3)N=C(N)N(C)C2=O)cc(C)n1` (stereo not drawn) [Example 101], the half-maximal inhibitory concentration (IC50) on human BACE1 is 0.11 to 1 µM.

The molecule `Cc1cc(C2(c3cccc(-c4cncnc4)c3)N=C(N)N(C)C2=O)cc(C)n1` (stereo not drawn) [Example 75] showed a pIC50 against human BACE1 of 6.00 to 6.96.

For the molecule `CCc1cc(C2(c3cccc(-c4cccnc4)c3)N=C(N)N(C)C2=O)cc(C)n1` (stereo not drawn) [Example 83], the melting point is 135 to 139 °C. Further, the IC50 at human BACE1 lay in the range of 0.11 to 1 µM.

In turn, `COc1cncc(-c2cccc(C3(c4ccncc4)N=C(N)N(C)C3=O)c2)c1` (stereo not drawn) [Example 33] returned a melting point of 198 to 200 °C. Also, the pIC50 on human BACE1 is 7.00 to 8.00.

On human BACE1, `CN1C(=O)C(c2ccncc2)(c2cccc(-c3cccc(F)c3)c2)N=C1N` (stereo not drawn) [Example 53] showed a pIC50 of 7.00 to 8.00.

Regarding `CCc1cc(C2(c3cccc(-c4cc(F)ccc4F)c3)N=C(N)N(C)C2=O)ccn1` (stereo not drawn) [Example 65], the melting point was 188 to 192 °C.

`CN1C(=O)C(c2ccncc2)(c2cccc(-c3cccc(CO)c3)c2)N=C1N` (stereo not drawn) [Example 36] had a melting point of 177 to 179 °C. In addition, the pIC50 on human BACE1 was 6.00 to 6.96.

The molecule `Cc1cc(C2(c3cccc(-c4cc(F)ccc4F)c3)N=C(N)N(C)C2=O)ccn1` (stereo not drawn) [Example 62] registered a melting point of 161 to 163 °C. Moreover, the negative logarithm of the IC50 (pIC50) at human BACE1 was 7.00 to 8.00.

For the molecule `CN1C(=O)C(c2ccncc2)(c2cccc(-c3cccc(C#N)c3)c2)N=C1N` (stereo not drawn) [Example 55], on human BACE1, the pIC50 is 7.00 to 8.00.

`Cc1cc(C2(c3cccc(-c4cc(F)ccc4F)c3)N=C(N)N(C)C2=O)cc(C)n1` (stereo not drawn) [Example 76] displayed a melting point of 184 to 190 °C. The pIC50 against human BACE1 was 6.00 to 6.96.

Regarding `CCc1cc(C2(c3cccc(-c4cc(F)ccc4F)c3)N=C(N)N(C)C2=O)cc(C)n1` (stereo not drawn) [Example 85], the melting point was 114 to 117 °C. In addition, the half-maximal inhibitory concentration (IC50) at human BACE1 lay within 0.11 to 1 µM.

On to `CN1C(=O)C(c2ccncc2)(c2cccc(-c3ccoc3)c2)N=C1N` (stereo not drawn) [Example 45], for which the melting point fell in the range of 113 to 115 °C.

In the case of `CCc1cc(C2(c3cccc(-c4ccc(F)nc4)c3)N=C(N)N(C)C2=O)cc(CC)n1` (stereo not drawn) [Example 93], on human BACE1, the 50% inhibitory concentration (IC50) was in the range of 0.11 to 1 µM.

For `CN1C(=O)[C@@](c2ccncc2)(c2ccc(F)c(-c3cccnc3F)c2)N=C1N` [Example 113B, (5S)-2-amino-5-[4-fluoro-3-(2-fluoropyridin-3-yl)phenyl]-3-methyl-5-pyridin-4-yl-3,5-dihydro-4H-imidazol-4-one], on human BACE1, the IC50 is more than 1 µM.

`CN1C(=O)C(c2ccncc2)(c2cccc(-c3cccc(O)c3)c2)N=C1N` (stereo not drawn) [Example 35] registered a melting point of 263 to 265 °C. On human BACE1, this molecule showed a pIC50 of 6.00 to 6.96.

On to `CN1C(=O)C(c2ccccc2)(c2ccncc2)N=C1N` (stereo not drawn) [Example 23, 2-Amino-3-methyl-5-phenyl-5-pyridin-4-yl-3,5-dihydro-4H-imidazol-4-one], for which the pIC50 against human BACE1 was less than 6.00.

As to `CN1C(=O)C(c2ccc(OC(F)F)cc2)(c2cccnc2)N=C1N` (stereo not drawn) [Example 111, 2-amino-5-[4-(difluoromethoxy)phenyl]-3-methyl-5-pyridin-3-yl-3,5-dihydro-4H-imidazol-4-one], the melting point is 173 to 175 °C. Also, the IC50 at human BACE1 was more than 1 µM.

With `CN1C(=O)C(c2ccncc2)(c2ccc(F)c(-c3cccnc3F)c2)N=C1N` (stereo not drawn) [Example 59], the melting point is 218 to 220 °C. For the same molecule, at human BACE1, the pIC50 was 7.00 to 8.00.

For `CN1C(=O)[C@](c2ccncc2)(c2ccc(F)c(-c3cccnc3F)c2)N=C1N` [Example 113A, (5R)-2-amino-5-[4-fluoro-3-(2-fluoropyridin-3-yl)phenyl]-3-methyl-5-pyridin-4-yl-3,5-dihydro-4H-imidazol-4-one], at human BACE1, the concentration for half-maximal inhibition (IC50) was more than 1 µM.

Regarding `CN1C(=O)C(c2ccncc2)(c2cccc(-c3cccnc3)c2)N=C1N` (stereo not drawn) [Example 44], the negative logarithm of the IC50 (pIC50) against human BACE1 was 7.00 to 8.00.

For `CCc1cc([C@]2(c3cccc(-c4ccc(F)nc4)c3)N=C(N)N(C)C2=O)cc(CC)n1` [Example 108B, (5S)-2-Amino-5-(2,6-diethylpyridin-4-yl)-5-[3-(6-fluoropyridin-3-yl)phenyl]-3-methyl-3,5-dihydro-4H-imidazol-4-one], the 50% inhibitory concentration (IC50) at human BACE1 was in the range of 0.01 to 0.1 µM.

As to `CC(C)c1cc(C2(c3cccc(-c4cncnc4)c3)N=C(N)N(C)C2=O)ccn1` (stereo not drawn) [Example 87], at human BACE1, the pIC50 is 7.00 to 8.00.

`CN1C(=O)C(c2ccncc2)(c2cccc(-c3ccsc3)c2)N=C1N` (stereo not drawn) [Example 46]: the melting point fell in the range of 217 to 219 °C.

Take `CCc1cc([C@@]2(c3cccc(-c4ccc(F)nc4)c3)N=C(N)N(C)C2=O)cc(CC)n1` [Example 108A, (5R)-2-Amino-5-(2,6-diethylpyridin-4-yl)-5-[3-(6-fluoropyridin-3-yl)phenyl]-3-methyl-3,5-dihydro-4H-imidazol-4-one]: the IC50 on human BACE1 was more than 1 µM.

On to `Cc1cc(C2(c3cccc(-c4cccnc4)c3)N=C(N)N(C)C2=O)ccn1` (stereo not drawn) [Example 60], for which the negative logarithm of the IC50 (pIC50) on human BACE1 was 7.00 to 8.00.

As to `CN1C(=O)C(c2ccncc2)(c2cccc(-c3cccc(F)c3F)c2)N=C1N` (stereo not drawn) [Example 40], the negative-log IC50 (pIC50) against human BACE1 is 7.00 to 8.00.

Turning to `Cc1cc(C2(c3cccc(-c4cncnc4)c3)N=C(N)N(C)C2=O)cc[n+]1[O-]` (stereo not drawn) [Example 102], the melting point was 181 to 186 °C.

On human BACE1, `CCc1cc(C2(c3cccc(-c4cncnc4)c3)N=C(N)N(C)C2=O)cc(CC)n1` (stereo not drawn) [Example 91] showed a pIC50 of 7.00 to 8.00.

On to `Cc1cc(C2(c3cccc(-c4cncnc4)c3)N=C(N)N(C)C2=O)ccn1` (stereo not drawn) [Example 61], for which, on human BACE1, the pIC50 was 7.00 to 8.00.

In the case of `CN1C(=O)C(c2ccncc2)(c2cccc(-c3cccnc3F)c2)N=C1N` (stereo not drawn) [Example 43], the pIC50 against human BACE1 was 7.00 to 8.00.

On to `COc1ccc(C2(c3ccnc(-c4ccccc4)c3)N=C(N)N(C)C2=O)cc1C` (stereo not drawn) [Example 109, 2-Amino-5-(4-methoxy-3-methylphenyl)-3-methyl-5-(2-phenylpyridin-4-yl)-3,5-dihydro-4H-imidazol-4-one], for which, at human BACE1, the 50% inhibitory concentration (IC50) lay within 0.11 to 1 µM.
